Like-named read-outs stand apart in the source and are kept apart here.
Assays:
CDK19 [1] = target: T1, CDK19 (Homo sapiens, UniProt Q9BWU1); experiment: TR-FRET ligand displacement assay (Kinase Tracer […], Tb-anti-GST); also KINOMEscan […] inhibition at […]; assay type: binding
T1 construct: GST-CDK19; with Cyclin C

HASPIN = HASPIN (Homo sapiens, UniProt Q8TF76); experiment: biochemical; parameters: KINOMEscan active site-directed competition binding assay (DiscoveRx), 456 kinases, per cent of control at 300 nM; settings: sheet T-418; read-out: Percent of Control (%)
Chain of HASPIN (Q8TF76 whole entry): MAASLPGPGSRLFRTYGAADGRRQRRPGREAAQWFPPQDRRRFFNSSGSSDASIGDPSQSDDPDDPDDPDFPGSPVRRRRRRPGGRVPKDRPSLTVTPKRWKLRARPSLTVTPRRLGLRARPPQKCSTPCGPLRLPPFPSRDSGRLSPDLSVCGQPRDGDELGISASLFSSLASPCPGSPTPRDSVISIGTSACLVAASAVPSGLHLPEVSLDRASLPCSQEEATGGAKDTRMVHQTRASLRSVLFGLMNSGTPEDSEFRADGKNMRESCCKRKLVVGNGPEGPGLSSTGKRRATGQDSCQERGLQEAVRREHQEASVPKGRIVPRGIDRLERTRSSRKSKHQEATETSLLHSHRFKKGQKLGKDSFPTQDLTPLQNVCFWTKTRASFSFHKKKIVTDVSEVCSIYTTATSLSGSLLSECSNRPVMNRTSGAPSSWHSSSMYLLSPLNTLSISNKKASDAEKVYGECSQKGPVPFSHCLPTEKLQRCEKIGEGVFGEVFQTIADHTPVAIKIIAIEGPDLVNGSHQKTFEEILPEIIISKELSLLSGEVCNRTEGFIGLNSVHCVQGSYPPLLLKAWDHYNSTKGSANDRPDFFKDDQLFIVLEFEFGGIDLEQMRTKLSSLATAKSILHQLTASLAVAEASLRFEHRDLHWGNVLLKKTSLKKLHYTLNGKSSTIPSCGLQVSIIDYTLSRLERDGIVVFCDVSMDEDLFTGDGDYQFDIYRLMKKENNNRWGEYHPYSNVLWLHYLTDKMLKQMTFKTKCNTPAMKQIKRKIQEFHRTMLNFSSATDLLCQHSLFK
Outline: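 Active site-directed competition binding (KINOMEscan) across a 456-kinase panel, compounds tested at 300 nmol/L.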

CDK8 [2] = target: T2, CDK8 (Homo sapiens, UniProt P49336); experiment: TR-FRET ligand displacement assay (Kinase Tracer […], Tb-anti-GST); assay type: binding; parameters: GST-CDK8; with Cyclin C
T2 sequence (P49336 whole entry): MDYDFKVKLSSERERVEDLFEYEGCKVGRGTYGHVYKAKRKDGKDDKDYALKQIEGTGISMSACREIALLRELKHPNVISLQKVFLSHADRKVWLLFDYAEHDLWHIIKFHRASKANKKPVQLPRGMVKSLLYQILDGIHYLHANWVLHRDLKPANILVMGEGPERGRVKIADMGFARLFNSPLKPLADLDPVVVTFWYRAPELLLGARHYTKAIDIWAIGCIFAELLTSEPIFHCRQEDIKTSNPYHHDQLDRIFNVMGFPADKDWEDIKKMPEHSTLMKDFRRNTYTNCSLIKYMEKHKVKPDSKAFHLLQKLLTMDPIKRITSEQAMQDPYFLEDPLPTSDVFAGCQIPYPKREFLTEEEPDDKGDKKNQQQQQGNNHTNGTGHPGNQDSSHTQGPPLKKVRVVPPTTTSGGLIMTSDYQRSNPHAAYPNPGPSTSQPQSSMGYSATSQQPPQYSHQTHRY
T2 sequence (P24863 whole entry partner): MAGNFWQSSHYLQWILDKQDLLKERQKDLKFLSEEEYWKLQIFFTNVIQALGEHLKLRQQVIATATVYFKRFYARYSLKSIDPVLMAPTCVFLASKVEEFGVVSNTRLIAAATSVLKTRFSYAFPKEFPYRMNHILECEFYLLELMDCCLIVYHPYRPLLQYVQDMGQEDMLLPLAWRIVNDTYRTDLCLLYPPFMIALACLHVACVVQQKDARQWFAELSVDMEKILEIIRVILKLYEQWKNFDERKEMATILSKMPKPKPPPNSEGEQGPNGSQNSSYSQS

CDK8 [3] = target: T2, CDK8; experiment: TR-FRET ligand displacement assay (Kinase Tracer […], Tb-anti-GST); also KINOMEscan […] inhibition at […]; assay type: binding; parameters: GST-CDK8; with Cyclin C
CDK19 [4] = target: T1, CDK19; experiment: as above; assay type: binding; remark: listed apart in the source

T1 sequence (Q9BWU1 whole entry): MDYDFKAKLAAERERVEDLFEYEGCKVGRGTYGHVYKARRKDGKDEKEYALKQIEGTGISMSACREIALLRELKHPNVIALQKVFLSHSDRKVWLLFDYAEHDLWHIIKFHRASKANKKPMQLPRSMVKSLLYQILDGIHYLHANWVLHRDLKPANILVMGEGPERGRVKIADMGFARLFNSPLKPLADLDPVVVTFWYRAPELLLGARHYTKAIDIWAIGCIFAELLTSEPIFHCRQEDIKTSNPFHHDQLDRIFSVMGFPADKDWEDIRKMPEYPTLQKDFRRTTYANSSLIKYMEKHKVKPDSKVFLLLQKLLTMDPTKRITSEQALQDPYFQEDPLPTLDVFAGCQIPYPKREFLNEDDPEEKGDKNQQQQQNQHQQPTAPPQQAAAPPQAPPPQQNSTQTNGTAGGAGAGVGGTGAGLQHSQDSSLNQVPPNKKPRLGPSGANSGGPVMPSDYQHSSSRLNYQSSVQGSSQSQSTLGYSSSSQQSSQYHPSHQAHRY
T1 sequence (P24863 whole entry partner): as the sequence (P24863 whole entry partner) above

| Structure (SMILES) | IC50 (CDK19 [1]) [nM] | remaining binding at 0.3 µM (HASPIN) [%] | IC50 (CDK8 [2]) [nM] | IC50 (CDK8 [3]) [nM] | IC50 (CDK19 [4]) [nM] |
| --- | --- | --- | --- | --- | --- |
| O=C(/C=C/c1cnccc1-c1ccc(F)cc1)Nc1ccc(CCc2nnco2)cc1 [T-418, (2E)-3-(4-(4-fluorophenyl)pyridin-3-yl)-N-(4-(2-(1,3,4-oxadiazol-2-yl)ethyl)phenyl)acrylamide] | 62 | 90 | 23 | – | – |
| Cc1ncccc1Oc1sc(C(N)=O)c2c1-c1c(cnn1C)CC2 [T-474, 1-methyl-8-((2-methylpyridin-3-yl)oxy)-4,5-dihydro-1H-thieno[3,4-g]indazole-6-carboxamide] | – | – | – | 1.6 | 1.9 |
